Legend:
IL-6 = test: LPS stimulation of BV-2 microglia: IL-6; format: cell-based, murine; conditions: between 0.3 and 3 μM, BV2, LPS 500 ng/ml, 24 h
Experimental: (§1) The murine microglial cell line BV-2 was grown in DMEM medium supplemented with 10% FCS, 1% penicillin/streptomycin and 2 mM L-glutamine (culture medium). For LPS stimulation assay, 10000 BV-2 cells per well (uncoated 96 well plates) were plated and after 24 hours, medium was changed to serum-free treatment medium (DMEM, 2 mM L-glutamine) and cells were maintained in treatment medium for the remaining culture period. 1 h after changing cells to treatment medium, the test items were added 1 hour before LPS stimulation (Sigma-Aldrich; L6529; 1 mg/ml stock in ddH2O, final concentration in well: 500 ng/ml (dilutions in medium)). Cells treated with vehicle, cells treated with LPS alone, as well as cells treated with LPS plus reference dexamethasone at 10 μM item served as controls.
(§2) Following 24 h of stimulation, cell supernatants were collected for the NO, and cytokine measurements. Levels of 2 cytokines (TNF-α, IL-6) were measured by an immunosorbent assay (U-PLEX Custom […] Cytokine, Mesoscale Discovery) according to the instructions of the manufacturer and evaluated in comparison to calibration curves provided in the kit. […] Absorbance was measured at 570 nm. Nitrosative stress was evaluated in the study samples in comparison to a NaNO2 standard curve. […]

[1] = system: human hepatocytes from pooled donor lot; test: Hepatic toxicity: cell viability by ATP content; format: cell-based; conditions: 1 to 100 μM, 24 h exposure
Experimental: (§3) Cryopreserved human hepatocytes from pooled donor lot (Bioreclamation IVT) were seeded on collagen I coated 96-well plates (Corning Biocoat) at 0.55×10^5 cells per well in 120 μl InVitroGRO™ CP medium (BioIVT), including additives Torpedo Antibiotic mix (BioIVT). After cell attachment (4-6 hours post seeding) cell culture medium was replaced with fresh medium and incubated for 72 hours at 37° C. under 5% CO2. Thereafter, hepatocytes were exposed to test or control compounds in 100 μl of InVitroGRO™ HI medium, including additives Torpedo Antibiotic mix at concentrations presented below. Cytotoxicity and cell viability were evaluated based on LDH release in medium and ATP content in the cells after 24 hours exposure phase.
(§4) Cytotoxicity potency of test compounds SND118, SND121, SND122 and SND123 was assayed in human hepatocytes from pooled donor lot at three concentrations; 1, 10 and 100 μM. Cytotoxicity was assayed from medium samples after 24 h exposure period with test compounds by measuring membrane integrity (LDH leakage), coupled to fluorescent signal. In parallel, cell viability was assayed by the means of ATP content, indicating the metabolically competent cell activity. LDH and ATP assay kits were sourced from Promega. ATP content was measured based on luciferase catalysed reaction generating stable bioluminescent signal. […]

TNF-α = test: LPS stimulation of BV-2 microglia: TNF-α; format: cell-based, murine; conditions: between 0.3 and 3 μM, BV2, LPS 500 ng/ml, 24 h
Experimental: as §1, §2

[2] = Metabolic stability in human liver microsomes; format: in vitro ADME; conditions: both sexes, pooled liver microsomes, pH 7.4, 0.5 mg/ml protein, read-out: T1/2 LM human
Experimental: Sample type: pooled liver or intestine microsomes; Species: CD1-mouse (male), human (mixed gender) Time points: 0, 10, 20, 40, 60 min cofactors, and negative control;
Protein content: 0.5 mg/ml: Replicates: 2 with cofactors, 1 without cofactors; Cofactors: NADPH (1 mM)+UDPGA (1 mM)+15 μg/ml alamethicin Buffer: 0.1 M phosphate buffer pH 7.4, 2 mM MgCl2; Spiking solvent: 50% DMSO ( 1/100 to incubation); Quenching solvent: 2-fold volume of 75% ACN, Control: midazolam disappearance rate
The study compounds were incubated with liver or intestine microsomes as specified above. The collected samples were stored at −20 C until thawed at room temperature, centrifuged and analyzed as presented below.
The samples were analysed by UPLC/HR-MS (with data dependent MS/MS mode) to monitor substrate depletion (and later optionally metabolite formation). The analytical method was optimised by using the parent compound for optimum chromatographic properties (peak shape and retention) and mass spectrometric ionisation. Disappearance rate of the study compound was estimated based on relative LC/MS peak areas (o min marked as 100%), and was used to calculate in vitro half-life and clearance (and in vivo extrapolation of hepatic clearance).

[3] = Metabolic stability in human plasma; format: in vitro ADME; conditions: 1 μM
Experimental: The compounds were incubated with plasma, and the collected samples were analyzed by UPLC/HR-MS to measure stability of the compounds.
Sample type: plasma; Species: CD1-mouse (male), human (mixed gender); Time points: 0, 20, 40, 60, 120 min;
Spiking solvent: 50% DMSO ( 1/100 to incubation); Quenching solvent: 2-fold volume of 100% ACN; Control: propanthelin bromide (human, mouse)
The study compounds were incubated with plasma as specified above. The collected samples were stored at −20 C until thawed at room temperature, centrifuged and analyzed using UPLC/PDA with high resolution mass spectrometry (QE-Orbitrap-MS on DDI mode) to monitor substrate depletion and metabolite formation. The analytical method was optimised by using the parent compounds for optimum chromatographic properties (peak shape and retention) and mass spectrometric ionisation. Disappearance was based on relative LC/MS peak areas (0 min=100%) and will be used to calculate half-lives.

NO = test: LPS stimulation of BV-2 microglia: NO (Griess reagent); format: cell-based, murine; conditions: between 0.3 and 3 μM, BV2, LPS 500 ng/ml, 24 h
Experimental: as §1, §2

[4] = system: human hepatocytes from pooled donor lot; test: Hepatic toxicity: cytotoxicity by LDH leakage; format: cell-based; conditions: 1 to 100 μM, 24 h exposure
Experimental: as §3, §4

half-life at 1 μM [2]: 18 min | T1/2 plasma Human [3]: 789 min
Structure (SMILES): O=c1cc(-c2ccc(CCCC[P+](c3ccccc3)(c3ccccc3)c3ccccc3)cc2)oc2c(O)c(O)ccc12 [SND118, 4-[4-(7,8-dihydroxy-4-oxo-chromen-2-yl)phenyl]butyltriphenylphosphonium bromide]
level of IL-6 in response to LPS stimulation (IL-6): significantly decreased | ATP content (cell viability) [1]: 72-103% | level of TNF-α in response to LPS stimulation (TNF-α): significantly decreased | level of NO in response to LPS stimulation (NO): significantly decreased | Cytotoxicity (LDH leakage) [4]: 7-10%
